Reference: patent US8735601B2, “Pentamethine cyanine fluorescent dye with N-substituting at β-position of conjugated chain” (Dalian University of Technology, priority 2010, dated 2014)

Key:
[1] = Absorption and emission spectra of dyes in different solvents; assay type: physicochemical; set-up: key to Δλ1 / Δλ2: Stokes shift in nm; ε1 (molar extinction coefficient) / ε2 (molar extinction coefficient): scale not given here; settings: for Δλ1: Stokes shift to absorption peak 1; for Δλ2: Stokes shift to absorption peak 2
From the text: In the present invention, compounds IIa to IIg were synthesized based on compound II, and their spectral properties were investigated. Compared with the traditional pentamethine cyanine dye, for the novel pentamethine cyanine dye with N-substituting at β-position (deviated position), it was observed that, evident blue shift of absorption and emission wavelengths occurred, absorption wavelength blue shifted even largely than that of emission wavelength, absorption spectrum and fluorescence spectrum were no longer mirror-symmetric and had two absorption peaks and a single emission peak, and larger Stokes shift (minimum 60 and 150 nm, and maximum 90 and 230 nm) appeared.

[2] = Measurement of fluorescence quantum yield (Rhodamine B in ethanol as reference); assay type: physicochemical

CCN(CC)C(=C\C1=[N+](CC)c2ccccc2C1(C)C)/C=C/C=C1/N(CC)c2ccccc2C1(C)C [Dye IId]
Δλ1 ([1]; solvent DCM): 88
Δλ1 ([1]; solvent DMSO): 92
Δλ1 ([1]; solvent Ethanol): 94
Δλ1 ([1]; solvent Methanol): 96
Δλ1 ([1]; solvent THF): 87
Δλ1 ([1]; solvent Water): 99
Δλ2 ([1]; solvent DCM): 158
Δλ2 ([1]; solvent DMSO): 140
Δλ2 ([1]; solvent Ethanol): 157
Δλ2 ([1]; solvent Methanol): 158
Δλ2 ([1]; solvent THF): 154
Δλ2 ([1]; solvent Water): 152
ε1 (molar extinction coefficient) ([1]; solvent DCM): 4.3 cm^−1M
ε2 (molar extinction coefficient) ([1]; solvent DCM): 2.9 cm^−1M
λabs1 ([1]; solvent DCM): 523 nm
λbs2 ([1]; solvent DCM): 453 nm
λem ([1]; solvent DCM): 611 nm
ε1 (molar extinction coefficient) ([1]; solvent DMSO): 3.9 cm^−1M
ε2 (molar extinction coefficient) ([1]; solvent DMSO): 2.7 cm^−1M
λabs1 ([1]; solvent DMSO): 508 nm
λbs2 ([1]; solvent DMSO): 460 nm
λem ([1]; solvent DMSO): 600 nm
ε1 (molar extinction coefficient) ([1]; solvent Ethanol): 3.5 cm^−1M
ε2 (molar extinction coefficient) ([1]; solvent Ethanol): 2.5 cm^−1M
λabs1 ([1]; solvent Ethanol): 516 nm
λbs2 ([1]; solvent Ethanol): 453 nm
λem ([1]; solvent Ethanol): 610 nm
ε1 (molar extinction coefficient) ([1]; solvent Methanol): 3.9 cm^−1M
ε2 (molar extinction coefficient) ([1]; solvent Methanol): 2.8 cm^−1M
λabs1 ([1]; solvent Methanol): 513 nm
λbs2 ([1]; solvent Methanol): 451 nm
λem ([1]; solvent Methanol): 609 nm
ε1 (molar extinction coefficient) ([1]; solvent THF): 4.1 cm^−1M
ε2 (molar extinction coefficient) ([1]; solvent THF): 2.1 cm^−1M
λabs1 ([1]; solvent THF): 517 nm
λbs2 ([1]; solvent THF): 450 nm
λem ([1]; solvent THF): 604 nm
ε1 (molar extinction coefficient) ([1]; solvent Water): 2.9 cm^−1M
ε2 (molar extinction coefficient) ([1]; solvent Water): 2.3 cm^−1M
λabs1 ([1]; solvent Water): 501 nm
λbs2 ([1]; solvent Water): 448 nm
λem ([1]; solvent Water): 600 nm
Φ1 (fluorescence quantum yield) ([2]; solvent DCM): 0.124
Φ2 (fluorescence quantum yield) ([2]; solvent DCM): 0.085
Φ1 (fluorescence quantum yield) ([2]; solvent DMSO): 0.004
Φ2 (fluorescence quantum yield) ([2]; solvent DMSO): 0.004
Φ1 (fluorescence quantum yield) ([2]; solvent Ethanol): 0.009
Φ2 (fluorescence quantum yield) ([2]; solvent Ethanol): 0.009
Φ1 (fluorescence quantum yield) ([2]; solvent Methanol): 0.005
Φ2 (fluorescence quantum yield) ([2]; solvent Methanol): 0.005
Φ1 (fluorescence quantum yield) ([2]; solvent THF): 0.030
Φ2 (fluorescence quantum yield) ([2]; solvent THF): 0.022
Φ1 (fluorescence quantum yield) ([2]; solvent Water): 0.001
Φ2 (fluorescence quantum yield) ([2]; solvent Water): 0.001
